Data taken from PubChem BioAssay AID1963839 (Molecular Pharmacology Branch, DTP, NCI, 2024).

Test system: 817829-284-R-J1-PDC complex spheroid viability
Test: Anticancer human tumor 817829-284-R-J1-PDC patient-derived colon adenocarcinoma cell line growth inhibition [POLQ]
Details: for IC50: curve of first compound; for viability, T/C: stronger effect = lower value
Procedure, shortened: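 Three-cell-type spheroids modelling solid tumor plus stroma served as the readout system; POL inhibitors were tested individually and in combination, concentration ranges set by clinical Cmax where known.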
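Also: spheroids exposed to compounds for 7 days.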
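For viability, T/C in this document: 100% = DMSO vehicle-treated spheroids.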

C=CCn1c(=O)c2cnc(Nc3ccc(N4CCN(C)CC4)cc3)nc2n1-c1cccc(C(C)(C)O)n1 + Nc1ccc(C#CCN(C(=O)Cc2ncc(C(F)(F)F)cc2C(F)(F)F)c2ccc(F)cc2)nn1
IC50 (second compound 0.0316 µM): 258 nM | IC50 (second compound 0.1 µM): 219 nM | IC50 (second compound 0.316 µM): 214 nM | IC50 (second compound 1 µM): 259 nM | IC50 (second compound 3.16 µM): 198 nM | IC50 (second compound 10 µM): 236 nM | viability, T/C (second compound 0.0316 µM, first compound 0.00316 µM): 90.9% | viability, T/C (second compound 0.0316 µM, first compound 0.01 µM): 118% | viability, T/C (second compound 0.0316 µM, first compound 0.0316 µM): 97.2% | viability, T/C (second compound 0.0316 µM, first compound 0.1 µM): 72.6% | viability, T/C (second compound 0.0316 µM, first compound 0.316 µM): 47% | viability, T/C (second compound 0.0316 µM, first compound 1 µM): 5.79% | viability, T/C (second compound 0.1 µM, first compound 0.00316 µM): 103% | viability, T/C (second compound 0.1 µM, first compound 0.01 µM): 103% | viability, T/C (second compound 0.1 µM, first compound 0.0316 µM): 83.6% | viability, T/C (second compound 0.1 µM, first compound 0.1 µM): 79.9% | viability, T/C (second compound 0.1 µM, first compound 0.316 µM): 36% | viability, T/C (second compound 0.1 µM, first compound 1 µM): 6.74% | viability, T/C (second compound 0.316 µM, first compound 0.00316 µM): 90.6% | viability, T/C (second compound 0.316 µM, first compound 0.01 µM): 113% | viability, T/C (second compound 0.316 µM, first compound 0.0316 µM): 87.8% | viability, T/C (second compound 0.316 µM, first compound 0.1 µM): 78% | viability, T/C (second compound 0.316 µM, first compound 0.316 µM): 36.1% | viability, T/C (second compound 0.316 µM, first compound 1 µM): 5.29% | viability, T/C (second compound 1 µM, first compound 0.00316 µM): 110% | viability, T/C (second compound 1 µM, first compound 0.01 µM): 115% | viability, T/C (second compound 1 µM, first compound 0.0316 µM): 85.5% | viability, T/C (second compound 1 µM, first compound 0.1 µM): 82.4% | viability, T/C (second compound 1 µM, first compound 0.316 µM): 42.2% | viability, T/C (second compound 1 µM, first compound 1 µM): 5.43% | viability, T/C (second compound 3.16 µM, first compound 0.00316 µM): 93.7% | viability, T/C (second compound 3.16 µM, first compound 0.01 µM): 82.2% | viability, T/C (second compound 3.16 µM, first compound 0.0316 µM): 100% | viability, T/C (second compound 3.16 µM, first compound 0.1 µM): 75.2% | viability, T/C (second compound 3.16 µM, first compound 0.316 µM): 31.8% | viability, T/C (second compound 3.16 µM, first compound 1 µM): 5.58% | viability, T/C (second compound 10 µM, first compound 0.00316 µM): 90.7% | viability, T/C (second compound 10 µM, first compound 0.01 µM): 105% | viability, T/C (second compound 10 µM, first compound 0.0316 µM): 89.7% | viability, T/C (second compound 10 µM, first compound 0.1 µM): 80.7% | viability, T/C (second compound 10 µM, first compound 0.316 µM): 39.7% | viability, T/C (second compound 10 µM, first compound 1 µM): 5.43%
